The text below walks through data of patent publication US20240277744A1, “TREATMENT OF CHEMORESISTANT CANCER CELLS” (Cornell University, priority 2023, published 2024).

For one experiment, the system named is SW1990 xenograft tumors. Nature of the experiment: Luciferase-labeled SW1990 xenograft in nude mice. Format: in vivo. How it is done: CYM suppresses TRA-1-60 expression and blocks tumor growth in vivo. Next it was sought to validate the effects of CYM in vivo, using a xenograft model with luciferase-labeled SW1990 cells propagated in nude mice. Tumor-harboring mice were separated into 4 groups and treated with PBS (control), 2 mg/kg CYM, 50 mg/kg GEM, or 2 mg/kg CYM plus 50 mg/kg GEM through intraperitoneal injections twice per week. Luciferase intensity was quantified twice per week and normalized with the value obtained from the starting day. […] Consistent with imaging, of the four groups, mice treated with GEM plus CYM generated xenograft tumors with the smallest size (FIG. 6C) and weight (FIG. 6D).
Tissue samples were fixed with 4% paraformaldehyde overnight at 4° C., washed with 70% ethanol and then embedded in paraffin. After De-paraffin and rehydration, antigen retrieval was preceded in hot antigen retrieving buffer with a normal-pressure steamer for 30 min. blocking was proceeded 1 hour at room temperature in PBS containing 1% horse serum. Primary antibody was stained overnight at 4° C. in PBS plus 0.5% Triton X-100 and 5% horse serum. Secondary antibody was incubated at room temperature for 1.5 hours.
Mouse Procedures. To assess in vivo effects of Cymarin (CYM), Luciferase-labelled SW1990 cells were transplanted to nude mice subcutaneously. Each mouse received four injections (5×10^5 cells/site). 12 days later, mice were randomly separated into 4 groups and treated with PBS (control), GEM (50 mg/kg bodyweight), CYM (2 mg/kg bodyweight) or GEM (50 mg/kg bodyweight) plus CYM (2 mg/kg bodyweight) twice weekly via intraperitoneal injection. Image acquisition was performed twice weekly with Xtreme Optical and X-ray small animal imaging system. Luciferin potassium salt (Regis), substrate of luciferase, was applied at 2 mg/25 g bodyweight in 150 μl PBS. Isoflurane (Henry Schein) was used for anesthesia during imaging.

In another experiment the test system is TRA-1-60+ SW1990GR cells. Nature of the experiment: High content screen / immunofluorescent staining of TRA-1-60+ cells. Format: cell-based. Here is the method:
Immunofluorescent staining. Primary antibodies were TRA-1-60 antibody (BD, 1:200), biotin conjugated TRA-1-60 antibody (eBioscience, 1:200). Secondary antibodies were donkey anti-mouse Alexa-efluor594 (Life technologies, 1:500) or streptavidin conjugated Alexa Fluor® 594 (Life technologies, 1:200).
Cells were fixed with 10% formalin for 20 min at room temperature. After 1 hour blocking in PBS with 5% horse serum and 0.3% triton-X100, primary antibodies were added to cells and incubated overnight at 4° C. Secondary antibody incubation was 1.5 hours at room temperature.
Chemical library screening. The Prestwick library of FDA approved drugs (˜1280 chemicals) plus a collection of drugs in clinical trials was used for the screen on SW1990GR cells.
For screening, SW1990GR cells were plated in 384-well plates (5000 cells/well). After overnight incubation, chemicals were added at 1 μM or 10 μM in duplicate. After 5 days of treatment, plates were stained with TRA-1-60 antibody and analyzed with MetaXpress High Content Image Acquisition and Analysis System (Molecular Devices). Wells treated with DMSO were set as control. The reduction was calculated by subtracting the percentage of TRA-1-60^+ cells in the chemical-treated wells from that of control wells. Standard deviation of TRA-1-60^+ percentage in control wells was calculated and 3-fold of this value was taken as threshold to pick up the primary hit.

Broadly, the IC50 is the point on the concentration scale where inhibition reaches its midpoint. For the compound `CO[C@H]1C[C@H](O[C@H]2CC[C@]3(C=O)[C@H]4CC[C@]5(C)[C@@H](C6=CC(=O)OC6)CC[C@]5(O)[C@@H]4CC[C@]3(O)C2)O[C@H](C)[C@H]1O` [CYM, Cymarin], in the experiment on SW1990 xenograft tumors (3 weeks, i.p. twice per week, GEM 50 mg/kg, CYM 2 mg/kg), the “tumor growth (luciferase intensity)” value was “grew more slowly”. Also, the “percentage of TRA-1-60+ cells in xenograft tumors” value in the experiment on SW1990 xenograft tumors (CYM administration in GEM-treated tumors, immunofluorescence) is reported as around 13%. Also, in the experiment on SW1990 xenograft tumors (TUNEL assay), the “cell apoptosis in xenograft tumors (TUNEL+ cells)” value is “cell death increased”. Also, the “percentage of TRA-1-60+ cells after treatment” value in the experiment with TRA-1-60+ SW1990GR cells (25 nM CYM, 5 days, SW1990GR, from ~18%) is on record as “less than 5%”. In the experiment on TRA-1-60+ SW1990GR cells (SW1990GR), the “relative potency in TRA-1-60 inhibition” value is “higher potency than Ouabain” and the “validation of primary hit” value is on record as “able to be validated”. Besides, the concentration for half-maximal inhibition (IC50) in the experiment with TRA-1-60+ SW1990GR cells (read-out: IC50, decrease of percentage of TRA-1-60+ cells) worked out at 15.2 ± 4.3 nM.
